From ChEMBL document CHEMBL4196231, “Peptidomimetics for Targeting Protein-Protein Interactions between DOT1L and MLL Oncofusion Proteins AF9 and ENL” (ACS Med Chem Lett, 2018)
Square brackets hold non-standard residues; d marks the D form. Peptide text beside a SMILES is read from it. * marks the point of attachment. Biotinyl(3aR,4S,6aS) = O=C1N[C@H]2[C@H](CCCCC(=O)*)SC[C@H]2N1; Ala(cPent) = N[C@@H](CC1CCCC1)C(=O)O; Gly(cPent) = N[C@H](C(=O)O)C1CCCC1; Dap = NC[C@H](N)C(=O)O; Ahx = NCCCCCC(=O)O

What was measured:
Protein AF-9 [1] = biological target: T1, Protein AF-9 (Homo sapiens, UniProt P42568); assay: Displacement of N-Flu-DOT1L from MBP-tagged AF9 (unknown origin) (487 to 568 residues) expressed in Escherichia coli BL21(DE3) measured after 3 hrs by fluorescence polarization assay
T1 sequence (P42568 whole entry): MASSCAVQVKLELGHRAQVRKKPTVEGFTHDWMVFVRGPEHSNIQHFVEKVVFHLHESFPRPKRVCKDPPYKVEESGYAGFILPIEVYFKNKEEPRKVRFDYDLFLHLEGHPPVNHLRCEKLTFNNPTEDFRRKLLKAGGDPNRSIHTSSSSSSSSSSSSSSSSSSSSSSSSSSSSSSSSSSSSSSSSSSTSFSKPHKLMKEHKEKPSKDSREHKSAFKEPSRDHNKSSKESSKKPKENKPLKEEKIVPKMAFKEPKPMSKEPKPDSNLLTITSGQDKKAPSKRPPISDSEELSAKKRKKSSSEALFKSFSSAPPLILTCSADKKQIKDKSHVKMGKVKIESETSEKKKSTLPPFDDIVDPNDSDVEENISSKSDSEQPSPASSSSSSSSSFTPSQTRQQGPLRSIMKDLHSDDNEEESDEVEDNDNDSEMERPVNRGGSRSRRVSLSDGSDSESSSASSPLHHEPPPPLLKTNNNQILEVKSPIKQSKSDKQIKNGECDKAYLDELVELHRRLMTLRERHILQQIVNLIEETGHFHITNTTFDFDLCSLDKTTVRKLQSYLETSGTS

Protein ENL [2] = biological target: T2, Protein ENL (Homo sapiens, UniProt Q03111); assay: Displacement of N-Flu-DOT1L from MBP-tagged ENL (unknown origin) (489 to 559 residues) expressed in Escherichia coli BL21(DE3) measured after 3 hrs by fluorescence polarization assay
T2 sequence (Q03111 whole entry): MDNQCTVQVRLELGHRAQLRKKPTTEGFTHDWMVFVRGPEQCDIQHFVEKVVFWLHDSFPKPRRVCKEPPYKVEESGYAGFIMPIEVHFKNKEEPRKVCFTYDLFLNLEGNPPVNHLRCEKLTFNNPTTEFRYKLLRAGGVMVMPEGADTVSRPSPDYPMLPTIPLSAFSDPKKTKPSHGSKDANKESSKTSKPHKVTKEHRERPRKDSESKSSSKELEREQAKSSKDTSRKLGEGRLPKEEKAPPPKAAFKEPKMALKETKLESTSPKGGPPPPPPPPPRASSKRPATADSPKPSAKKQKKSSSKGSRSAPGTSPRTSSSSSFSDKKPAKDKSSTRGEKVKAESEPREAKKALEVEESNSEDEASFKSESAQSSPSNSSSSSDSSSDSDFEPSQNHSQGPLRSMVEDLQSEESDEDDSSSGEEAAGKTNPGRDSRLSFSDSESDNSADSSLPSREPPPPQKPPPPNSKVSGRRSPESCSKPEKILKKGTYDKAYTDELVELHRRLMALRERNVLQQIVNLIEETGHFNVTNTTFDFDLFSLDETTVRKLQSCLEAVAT

Protein AF-9 [3] = biological target: T1, Protein AF-9; assay: Binding affinity to MBP-tagged AF9 (unknown origin) (487 to 568 residues) expressed in Escherichia coli BL21(DE3) by Bio-layer interferometry
Protein ENL [4] = biological target: T2, Protein ENL; assay: Binding affinity to MBP-tagged ENL (unknown origin) (489 to 559 residues) expressed in Escherichia coli BL21(DE3) by Bio-layer interferometry

Row | SMILES | Ki (Protein AF-9 [1]) [nM] | Ki (Protein ENL [2]) [nM] | Kd (Protein AF-9 [3]) [nM] | Kd (Protein ENL [4]) [nM] | IC50 (Protein AF-9 [1]) [nM] | IC50 (Protein ENL [2]) [nM]
1 | CC(C)C[C@H](NC(=O)[C@@H]1CCCN1C(=O)[C@H](CC1CCCC1)NC(=O)[C@H](CN)NC(=O)[C@@H](NC(=O)[C@@H]1CCCN1C(=O)[C@H](CC(C)C)NC(=O)CCCCCNC(=O)CCCC[C@@H]1SC[C@H]2NC(=O)N[C@@H]12)C(C)C)C(=O)N(C)C ({Biotinyl(3aR,4S,6aS)-Ahx}-LPV[Dap][Ala(cPent)]PL-NMe2) | 10 | 63 | 15 | 57 | – | –
2 | CC[C@H](C)[C@H](NC(=O)[C@@H]1CCCN1C(=O)[C@H](CC(C)C)NC(C)=O)C(=O)N[C@@H](CO)C(=O)N[C@H](C(=O)N1CCC[C@H]1C(=O)N[C@@H](CC(C)C)C(=O)N(C)C)C1CCCC1 (Ac-LPIS[Gly(cPent)]PL-NMe2) | 250 | 1340 | – | – | 1490 | 4540
